This passage reports EPSA and IC50 results from US20260022143A1, “Cyclic Peptide Inhibitors of IL-23” (JANSSEN PHARMACEUTICA NV, priority 2022, published 2026).

Data set [1] can be described thus: Exposed Polar Surface Area (EPSA). In kind it is physicochemical. As to conditions: SFC on Chirex 3014 column; sample 1 mM DMSO stock; read-out: EPSA. Summed up:
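SFC retention on a Chirex 3014 (S)-valine/(R)-1-(α-naphthyl)ethylamine column, 35 °C, CO2 with MeOH (20 mM ammonium formate) gradient 5–60% at 20%/min, 14 MPa outlet. Retention times converted to EPSA (Å^2) via linear calibration with 8 standards; samples from 1 mM DMSO stock, run in duplicate.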

The target in a further data set is T1, IL-23R (Homo sapiens, UniProt Q5VWK5).
T1 construct: host or cells: HEK293
T1 sequence (Q5VWK5 24-629): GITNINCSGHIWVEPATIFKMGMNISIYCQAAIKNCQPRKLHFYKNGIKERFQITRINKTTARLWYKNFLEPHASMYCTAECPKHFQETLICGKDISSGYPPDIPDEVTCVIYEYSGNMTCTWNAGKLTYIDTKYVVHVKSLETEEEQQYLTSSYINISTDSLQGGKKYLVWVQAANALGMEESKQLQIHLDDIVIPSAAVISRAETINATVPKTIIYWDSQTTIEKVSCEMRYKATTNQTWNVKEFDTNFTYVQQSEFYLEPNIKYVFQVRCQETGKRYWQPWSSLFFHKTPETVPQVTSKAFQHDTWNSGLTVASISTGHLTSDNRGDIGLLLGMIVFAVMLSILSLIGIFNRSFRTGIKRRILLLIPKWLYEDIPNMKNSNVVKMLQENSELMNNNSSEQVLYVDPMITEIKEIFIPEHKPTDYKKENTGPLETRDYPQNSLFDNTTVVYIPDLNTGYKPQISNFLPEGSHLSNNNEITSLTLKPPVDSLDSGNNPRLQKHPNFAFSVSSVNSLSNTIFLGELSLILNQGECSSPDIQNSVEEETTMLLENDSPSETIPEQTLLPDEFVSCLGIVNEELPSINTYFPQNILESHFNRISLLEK
The data set is described as follows: IL23R Reporter Assay. In kind it is cell-based. As to conditions: HEK293 cells containing IL-23R, IL-12RP1 and STAT-inducible firefly luciferase reporter; 10 ng/mL IL-23 (EC90); 5 h at 37° C.; read-out: IL23R Reporter Assay. Background: Reporter assays use an easily measured gene product as a stand-in for the process of interest.

Molecules are shown by their SMILES. Starred links: 1 amine or outer side, 2 acyl side, 3 side chain; linkers in the order of their positions; H or OH if unused. Positions of bridges follow the written chain, without caps; N, C: chain ends. Non-standard residues stand in square brackets, D forms with d. Residues, ends and D or L forms follow the SMILES beside them. ξ: configuration not given here. *: point of attachment. X36 = C[N+]1(CCCc2cn(-c3ccc(C[C@H](N[*:1])C(=O)[*:2])cc3)nn2)CCOCC1; Me3N+CH2CH2(OCH2CH2)4CO = C[N+](C)(C)CCOCCOCCOCCOCCC(=O)*; Me3N+(CH2)2O(CH2)2O(CH2)2CO = C[N+](C)(C)CCOCCOCCC(=O)*; CH2CH2OCH2CH2OCH2CH2NMe3+ = C[N+](C)(C)CCOCCOCC*; Trp(7-Me) = Cc1cccc2c(C[C@H](N)C(=O)O)c[nH]c12; Abu(4-yl) = O=C([C@H](CC[*:3])N[*:1])[*:2]; Decanoyl(3,6,9-trioxa) = COCCOCCOCC(=O)*; Dab(NMeAc) = CC(=O)N(C)CC[C@H](N)C(=O)O; 2Nal = N[C@@H](Cc1ccc2ccccc2c1)C(=O)O; AEF = NCCOc1ccc(C[C@H](N)C(=O)O)cc1; X24 = C[N+](C)(CCN[*:1])CC(=O)[*:2]; 3Pal = N[C@@H](Cc1cccnc1)C(=O)O; Lys(Me) = CNCCCC[C@H](N)C(=O)O; Pen = CC(C)(S)[C@H](N)C(=O)O; ξLys(Me) = CNCCCCC(N)C(=O)O; Thp = NC1(C(=O)O)CCOCC1; X3 = C[N+](C)(C)CCCCC*; Me2NCH2CH2 = CN(C)CC*; Sar = CNCC(=O)O

For the compound `CC(=O)N[C@@H](COCCOCC[N+](C)(C)C)C(=O)N[C@@H]1C(=O)N[C@@H](CC(=O)N(C)C)C(=O)N[C@@H]([C@@H](C)O)C(=O)N[C@@H](Cc2c[nH]c3c(C)cccc23)C(=O)N[C@@H](CCCCN(C)C(C)=O)C(=O)N[C@H](C(=O)N[C@@H](Cc2ccc(OCCOCCOCC[N+](C)(C)C)cc2)C(=O)N[C@@H](Cc2ccc3ccccc3c2)C(=O)NC2(C(=O)N[C@@H](CCCCN(C)C(C)=O)C(=O)N[C@@H](CC(N)=O)C(=O)N[C@@H](Cc3cccnc3)C(=O)N(C)CC(=O)N(C)C)CCOCC2)C(C)(C)SSC1(C)C` (relative stereo) [compound 318, MeCO-APEG2Ser(S*)-Pen(3)-N(N(Me)2)-T-7MeW-K(NMeAc)-Pen(3)-APEG3F-2Nal-THP-K(NMeAc)-N-3Pya-Sar-CON(Me)2], the EPSA in data set [1] amounted to 151 A^2. The IC50 at IL-23R is 0.89 nM.
As for `CC(=O)N[C@@H]1C(=O)N[C@@H](CC(=O)N(C)C)C(=O)N[C@@H]([C@@H](C)O)C(=O)N[C@@H](Cc2c[nH]c3c(C)cccc23)C(=O)N[C@@H](CCCCN(C)C(C)=O)C(=O)N[C@H](C(=O)N[C@@H](Cc2ccc(OCCN(C)C)cc2)C(=O)N[C@@H](Cc2ccc3ccccc3c2)C(=O)NC2(C(=O)N[C@@H](CCC(=O)O)C(=O)N[C@@H](CC(N)=O)C(=O)N[C@@H](Cc3cccnc3)C(=O)N(C)CC(=O)N(C)C)CCOCC2)C(C)(C)SSC1(C)C` [compound 106, MeCO-Pen(3)-N(N(Me)2)-T-7MeW-K(NMeAc)-Pen(3)-AEF(N(Me)2)-2Nal-THP-E-N-3Pya-Sar-CON(Me)2] (Ac-[Pen]D(NMe2)T[Trp(7-Me)][Lys(Me)](Ac)[Pen]Y(Me2NCH2CH2)[2Nal][Thp]EN[3Pal][Sar]-NMe2; disulfide 1-6 (inferred)), the EPSA in data set [1] was 153 A^2. Further, at IL-23R, the IC50 turned out to be 6.5 nM.
As for `CC(=O)N(C)CCCC[C@H](NC(=O)C1(NC(=O)[C@H](Cc2ccc3ccccc3c2)NC(=O)[C@H](Cc2ccc(OCCCCC[N+](C)(C)C)cc2)NC(=O)[C@H]2NC(=O)[C@H](CCCCNC(=O)CCOCCOCC[N+](C)(C)C)NC(=O)[C@H](Cc3c[nH]c4c(C)cccc34)NC(=O)[C@H]([C@@H](C)O)NC(=O)[C@H](CC(=O)N(C)C)NC(=O)[C@@H](NC(=O)CCOCCOCC[N+](C)(C)C)C(C)(C)SSC2(C)C)CCOCC1)C(=O)N[C@@H](CC(N)=O)C(=O)N[C@@H](Cc1cccnc1)C(=O)N(C)CC(=O)N(C)C` [compound 384, cPEG3aCO-Pen(3)-N(N(Me)2)-T-7MeW-K(cPEG3a)-Pen(3)-TMAPF-2Nal-THP-K(NMeAc)-N-3Pya-Sar-CON(Me)2] ({Me3N+(CH2)2O(CH2)2O(CH2)2CO}-[Pen]D(NMe2)T[Trp(7-Me)]K(Me3N+(CH2)2O(CH2)2O(CH2)2CO)[Pen]Y(X3)[2Nal][Thp][Lys(Me)](Ac)N[3Pal][Sar]-NMe2; disulfide 1-6), the EPSA in data set [1] stood at 157 A^2. In addition, the IC50 on IL-23R worked out at 1.4 nM.
On the same counts, the results for `CC(=O)N(C)CC[C@H](NC(=O)C1(NC(=O)[C@H](Cc2ccc3ccccc3c2)NC(=O)[C@H](Cc2ccc(OCCN)cc2)NC(=O)[C@H]2NC(=O)[C@H](CCC(=O)N(C)C)NC(=O)[C@H](Cc3c[nH]c4c(C)cccc34)NC(=O)[C@H]([C@@H](C)O)NC(=O)[C@H](CC(=O)N(C)C)NC(=O)[C@@H](NC(=O)CCOCCOCCOCCOCC[N+](C)(C)C)C(C)(C)SSC2(C)C)CCOCC1)C(=O)N[C@@H](CC(N)=O)C(=O)N[C@@H](Cc1cccnc1)C(=O)N(C)CC(=O)N(C)C` [compound 173, cPEG5aCO-Pen(3)-N(N(Me)2)-T-7MeW-Q(N(Me)2)-Pen(3)-AEF-2Nal-THP-Dab(NMeAc)-N-3Pya-Sar-CON(Me)2] ({Me3N+CH2CH2(OCH2CH2)4CO}-[Pen]D(NMe2)T[Trp(7-Me)]E(NMe2)[Pen][AEF][2Nal][Thp][Dab(NMeAc)]N[3Pal][Sar]-NMe2; disulfide 1-6 (inferred)) are 144 A^2 and 3.1 nM.
For `CC(=O)NCCCC[C@H](NC(=O)C1(NC(=O)[C@H](Cc2ccc3ccccc3c2)NC(=O)[C@H](Cc2ccc(OCCN)cc2)NC(=O)[C@H]2NC(=O)[C@H](CCCCN(C)C(C)=O)NC(=O)[C@H](Cc3c[nH]c4c(C)cccc34)NC(=O)[C@H]([C@@H](C)O)NC(=O)[C@H](CC(=O)N(C)C)NC(=O)[C@@H](NC(=O)CCOCCOCC[N+](C)(C)C)C(C)(C)SSC2(C)C)CCOCC1)C(=O)N[C@@H](CC(N)=O)C(=O)N[C@@H](Cc1cccnc1)C(=O)N(C)CC(N)=O` [compound 149, cPEG3aCO-Pen(3)-N(N(Me)2)-T-7MeW-K(NMeAc)-Pen(3)-AEF-2Nal-THP-K(Ac)-N-3Pya-Sar-CONH2] ({Me3N+(CH2)2O(CH2)2O(CH2)2CO}-[Pen]D(NMe2)T[Trp(7-Me)][Lys(Me)](Ac)[Pen][AEF][2Nal][Thp]K(Ac)N[3Pal][Sar]-NH2; disulfide 1-6) the same measures were 157 A^2 and 2.1 nM.
In the case of `CC(=O)NCCCC[C@@H]1NC(=O)[C@H](Cc2c[nH]c3c(C)cccc23)NC(=O)[C@H]([C@@H](C)O)NC(=O)[C@H](CC(N)=O)NC(=O)[C@@H](NC(C)=O)C(C)(C)SSC(C)(C)[C@@H](C(=O)N[C@@H](Cc2ccc(-n3cc(CCC[N+]4(C)CCOCC4)nn3)cc2)C(=O)N[C@@H](Cc2ccc3ccccc3c2)C(=O)NC2(C(=O)N[C@@H](CCCCNC(C)=O)C(=O)N[C@@H](CC(N)=O)C(=O)N[C@@H](Cc3cccnc3)C(=O)N(C)CC(N)=O)CCOCC2)NC1=O` [compound 440] (Ac-[Pen]NT[Trp(7-Me)]K(Ac)[Pen][X36][2Nal][Thp]K(Ac)N[3Pal][Sar]-NH2; disulfide 1-6 (inferred)), the EPSA in data set [1] is 163 A^2. Moreover, the IC50 at IL-23R was determined as 2 nM.
`COCCOCCOCC(=O)NCC[N+](C)(C)CC(=O)N[C@@H]1C(=O)N[C@@H](CC(=O)N(C)C)C(=O)N[C@@H]([C@@H](C)O)C(=O)N[C@@H](Cc2c[nH]c3c(C)cccc23)C(=O)N[C@@H](CCC(=O)N(C)C)C(=O)N[C@H](C(=O)N[C@@H](Cc2ccc(OCCN)cc2)C(=O)N[C@@H](Cc2ccc3ccccc3c2)C(=O)NC2(C(=O)N[C@@H](CCC(=O)N(C)C)C(=O)N[C@@H](CC(N)=O)C(=O)N[C@@H](Cc3cccnc3)C(=O)N(C)CC(N)=O)CCOCC2)C(C)(C)SSC1(C)C` [compound 146, mPEG3CO-SP6-Pen(3)-N(N(Me)2)-T-7MeW-Q(N(Me)2)-Pen(3)-AEF-2Nal-THP-Q(N(Me)2)-N-3Pya-Sar-CONH2] ({Decanoyl(3,6,9-trioxa)}-[X24][Pen]D(NMe2)T[Trp(7-Me)]E(NMe2)[Pen][AEF][2Nal][Thp]E(NMe2)N[3Pal][Sar]-NH2; disulfide 2-7): in data set [1], the EPSA is 152 A^2. The IC50 at IL-23R is 3.8 nM.
In the case of `CC(=O)N(C)CCCCC(NC(=O)C1(NC(=O)[C@H](Cc2ccc3ccccc3c2)NC(=O)[C@H](Cc2ccc(OCCOCCOCC[N+](C)(C)C)cc2)NC(=O)[C@@H]2CCSC[C@H](NC(=O)CCOCCOCC[N+](C)(C)C)C(=O)N[C@@H](CC(=O)N(C)C)C(=O)N[C@@H]([C@@H](C)O)C(=O)N[C@@H](Cc3c[nH]c4c(C)cccc34)C(=O)N[C@@H](CCCCN(C)C(C)=O)C(=O)N2)CCOCC1)C(=O)N[C@@H](CC(N)=O)C(=O)N[C@@H](Cc1ccccc1)C(=O)N(C)CC(=O)N(C)C` (stereo partly drawn) [compound 475, cPEG3aCO-Abu(1)-N(N(Me)2)-T-7MeW-K(NMeAc)-C(1)-APEG3F-2Nal-THP-K(NMeAc)-N-F-Sar-CON(Me)2] ({Me3N+(CH2)2O(CH2)2O(CH2)2CO}-CD(NMe2)T[Trp(7-Me)][Lys(Me)](Ac)[Abu(4-yl)]Y(CH2CH2OCH2CH2OCH2CH2NMe3+)[2Nal][Thp][ξLys(Me)](Ac)NF[Sar]-NMe2; thioether 1-6), the EPSA in data set [1] was found to be 153 A^2. Moreover, on IL-23R, the IC50 is 1540 nM.
As to `CC(=O)NCCCC[C@@H]1NC(=O)[C@H](Cc2c[nH]c3c(C)cccc23)NC(=O)[C@H]([C@@H](C)O)NC(=O)[C@H](CC(N)=O)NC(=O)[C@@H](NC(=O)C(COCCOCC[N+](C)(C)C)NC(C)=O)C(C)(C)SSC(C)(C)[C@@H](C(=O)N[C@@H](Cc2ccc(OCCCCC[N+](C)(C)C)cc2)C(=O)N[C@@H](Cc2ccc3ccccc3c2)C(=O)NC2(C(=O)N[C@@H](CCCCNC(C)=O)C(=O)N[C@@H](CC(N)=O)C(=O)N[C@@H](Cc3cccnc3)C(=O)N(C)CC(N)=O)CCOCC2)NC1=O` (mixture of isomers) [compound 556, MeCO-APEG2Ser(RS)-Pen(3)-N-T-7MeW-K(Ac)-Pen(3)-TMAPF-2Nal-THP-K(Ac)-N-3Pya-Sar-CONH2], the EPSA in data set [1] was determined as 163 A^2. For the same compound, the IC50 on IL-23R was 5.9 nM.
